Legend:
MCF7 cells = test: Whole cell cytotoxicity assay: Sulforhodamine B; type: cell-based, human; details: compound at 100 μM, MCF7 cell growth, 48 hours with drug, SRB staining; for inhibition at 100 µM: Homo sapiens
Method: The following procedure can be found on the Developmental Therapeutics Program NCI/NIH web site at http://dtp.nci.nih.gov/brancehes/btb/ivclsp.html.
1. Human tumor cell lines of HT29, A549 and MCF7 are grown in DMEM containing 10% fetal bovine serum and 2 mM L-glutamine. Cells are plated in a 96 well plate at a density of 5000 cells per well in 100 μL of growth medium and incubated at 37° C., 5% CO2, for 24 hours prior to the addition of experimental compounds.
2. Experimental drugs are solubilized in DMSO for a final concentration of 20 mM immediately prior to use. Drugs are further diluted in growth media for a total of nine drug concentrations and a growth control. At the 24 hour time point, one plate of cells is fixed in situ with TCA as a measurement of the cell population at time zero, or the time of drug addition.
3. The plates are further incubated with drug for an additional 48 hours.
4. The cells are fixed in situ by gently aspirating off the culture media and then adding 50 μL of ice cold 10% TCA per well and incubated at 4° C. for 60 minutes. The plates are washed with tap water five times and allowed to air dry for 5 minute.
5. 50 μL of a 0.4% (w/v) Sulforhodamine B solution in 1% (v/v) acetic acid is added per well and incubated for 30 minutes at room temperature.
6. Following staining, plates are washed five times with 1% acetic acid to remove any unbound dye and then allowed to air dry for 5 minutes.
7. Stain is solubilized with 100 μL of 10 mM Tris pH 10.5 per well and placed on an orbital rotator for 5 minutes.
8. Absorbance is read at 570 nm.

[1] = system: Histone deacetylase (HDAC), HeLa cell nuclear extract; test: In vitro fluorescent histone deacetylase assay (Biomol kit, HeLa cell nuclear extract); type: biochemical; details: compound at 100 μM; HeLa cell nuclear extract as HDAC source; substrate 50 μM; 10 min at room temperature
Method: Histone deacetylase (HDAC) activity assays were performed using the HDAC fluorescent activity assay/drug discovery kit (Biomol Research Laboratories, Plymouth Meeting, Pa.) essentially according to the manufacturer's instructions. The included HeLa cell nuclear extract, which contains a mosaic of HDAC enzymes and other nuclear factors, was used as the source of HDAC activity. The final substrate concentration in the assay mixture was 50 μM. The reaction was allowed to proceed for 10 min at room temperature before stopping the reaction. Test compounds were prepared as 20 mM stock solutions in DMSO (Molecular Biology grade, Sigma-Aldrich Co. St. Louis, Mo.) and stored at −70° C. Serial dilutions of test compounds were prepared in assay buffer immediately prior to testing. DMSO was determined in a separate trial to have no significant effect on the activity of this assay at concentrations up to 5%; the final DMSO concentration in the wells was no more than 2% and therefore DMSO effects were safely neglected. Assays were performed in white polystyrene 96-well half-area assay plates (Corning, Corning, N.Y.) and measured on a Wallace 1420 fluorescent plate reader (Wallac Oy, Turku, Finland) with an excitation wavelength of 355 nm, an emission wavelength of 460 nm, and a 1 sec signal averaging time.

| Compound | inhibition at 100 µM (MCF7 cells) | % inhibition HDAC @ 100 μM [1] | % inhibition MCF7 cells @ 100 μM (MCF7 cells) |
| --- | --- | --- | --- |
| O=C(NO)c1cnc(N2CCN(S(=O)(=O)c3ccccc3C(F)(F)F)CC2)s1 [Example 37, 2-[4-(2-trifluoromethylphenylsulfonyl)-piperazin-1-yl]-thiazole-5-carboxylic acid hydroxyamide] | 98% | 99% |  |
| CC(C)(C)OC(=O)n1cccc1-c1ccc(S(=O)(=O)N2CCN(c3ncc(C(=O)NO)s3)CC2)cc1 [Example 66] | 97% | 99% |  |
| CN(C)Cc1ccc(S(=O)(=O)N2CCN(c3ncc(C(=O)NO)s3)CC2)cc1 [Example 95] | 96.8% | 98% |  |
| O=C(NO)c1cnc(N2CCN(S(=O)(=O)c3ccc(F)cc3)CC2)s1 [Example 11, 2-[4-(4-fluoro-benzenesulfonyl)-piperazin-1-yl]-thiazole-5-carboxylic acid hydroxyamide] | 96.7% | 98% |  |
| Cc1ccc(S(=O)(=O)N2CCN(c3ncc(C(=O)NO)s3)CC2)cc1Cl [Example 30, 2-[4-(3-chloro-4-methylphenylsulfonyl)-piperazin-1-yl]-thiazole-5-carboxylic acid hydroxyamide] | 97.9% | 99% |  |
| COc1ccc(-c2ccc(S(=O)(=O)N3CCN(c4ncc(C(=O)NO)s4)CC3)cc2)cc1 [Example 63] | 93.3% | 98% |  |
| O=C(NO)c1cnc(N2CCN(S(=O)(=O)c3ccc(-c4cncnc4)cc3)CC2)s1 [Example 91, 2-[4-{(4-pyrimidine)benzenesulfonyl}-piperazin-1-yl]-thiazole-5-carboxylic acid hydroxyamide] | 94.6% | 99% |  |
| O=C(NO)c1cnc(N2CCN(S(=O)(=O)c3ccc(-c4sccc4CN4CCCC4)cc3)CC2)s1 [Example 89] | 98.3% | 99% |  |
| O=C(NO)c1cnc(N2CCN(S(=O)(=O)c3ccc(Oc4ccccc4)nc3)CC2)s1 [Example 47, 2-[4-(2-phenoxypyridine-5-sulfonyl)-piperazin-1-yl]-thiazole-5-carboxylic acid hydroxyamide] | 90.2% | 96% |  |
| O=C(NO)c1cnc(N2CCN(S(=O)(=O)c3ccc(-c4cccc(Cl)c4)cc3)CC2)s1 [Example 57, 2-{4-[(3′-chloro-1,1′-biphenyl-4-yl)sulfonyl]piperazin-1-yl}-1,3-thiazole-5-carboxylic acid hydroxyamide] | 68.6% | 93% |  |
| COCc1cccc(S(=O)(=O)N2CCN(c3ncc(C(=O)NO)s3)CC2)c1 [Example 99, 2-[4-(3-methoxymethylbenzenesulfonyl)-piperazin-1-yl]-thiazole-5-carboxylic acid hydroxyamide] | 96% | 99% |  |
| 2-(4-{4-[(3-(pyrrolidin-1-ylmethyl)-2-furyl]phenylsulfonly}piperazin-1-yl)-1,3-thiazole-5-carboxylic acid hydroxyamide [Example 83] |  | 100% | 98% |
| CC(C)N(C)Cc1cccc(-c2ccc(S(=O)(=O)N3CCN(c4ncc(C(=O)NO)s4)CC3)cc2)c1 [Example 87, 2-{4-[(3′-[isopropyl(methyl)amino]methyl]-1,1′-biphenylsulfonyl]-piperazin-1-yl}-1,3-thiazole-5-carboxylic acid hydroxyamide] | 97.7% | 99% |  |
| Cc1ccc(S(=O)(=O)N2CCN(c3ncc(C(=O)NO)s3)CC2)cc1C [Example 50, 2-[4-(3,4-dimethylphenylsulfonyl)-piperazin-1-yl]-thiazole-5-carboxylic acid hydroxyamide] | 98.3% | 99% |  |
| CN(C)Cc1cccc(S(=O)(=O)N2CCN(c3ncc(C(=O)NO)s3)CC2)c1 [Example 97] | 83.9% | 99% |  |
| CN(C)c1ccc(S(=O)(=O)N2CCN(c3ncc(C(=O)NO)s3)CC2)cc1 [Example 29, 2-[4-(4-dimethylaminophenylsulfonyl)-piperazin-1-yl]-thiazole-5-carboxylic acid hydroxyamide] | 98.5% | 100% |  |
| O=C(NO)c1cnc(N2CCN(S(=O)(=O)c3ccc([N+](=O)[O-])cc3)CC2)s1 [Example 6, 2-[4-(4-nitro-benzenesulfonyl)-piperazin-1-yl]-thiazole-5-carboxylic acid hydroxyamide] | 95.1% | 97% |  |
| Cc1ccc(S(=O)(=O)N2CCN(c3ncc(C(=O)NO)s3)CC2)cc1F [Example 40, 2-[4-(3-fluoro-4-methylphenylsulfonyl)-piperazin-1-yl]-thiazole-5-carboxylic acid hydroxyamide] | 99.1% | 100% |  |
| Cl.O=C(NO)c1cnc(N2CCN(S(=O)(=O)c3ccc(-c4cccc(CN5CCCCCC5)c4)cc3)CC2)s1 [Example 77] | 98% | 100% |  |
| O=C(NO)c1cnc(N2CCN(S(=O)(=O)c3cccs3)CC2)s1 [Example 8, 2-[4-(thiophene-2-benzenesulfonyl)-piperazin-1-Yl]-thiazole-5-carboxylic acid hydroxyamide] | 90.1% | 98% |  |
| O=C(NO)c1cnc(N2CCN(S(=O)(=O)c3ccc(-c4ccco4)cc3)CC2)s1 [Example 59, 2-(4-{[4-(2-furyl)phenyl]sulfonyl}piperazin-1-yl)-1,3-thiazole-5-carboxylic acid hydroxyamide] | 98.9% | 99% |  |
| CN(C)Cc1ccc(-c2ccc(S(=O)(=O)N3CCN(c4ncc(C(=O)NO)s4)CC3)cc2)cc1 [Example 80] | 97.9% | 99% |  |
| Cc1ccccc1S(=O)(=O)N1CCN(c2ncc(C(=O)NO)s2)CC1 [Example 21, 2-[4-(2-methylphenylsulfonyl)piperazin-1-yl]-thiazole-5-carboxylic acid hydroxyamide] | 97.1% | 100% |  |
| O=C(NO)c1cnc(N2CCN(S(=O)(=O)c3ccc(-c4ccc5c(c4)OCO5)cc3)CC2)s1 [Example 60, 2-(4-{[4-(1,3-benzodioxol-5-yl)phenyl]sulfonyl}piperazin-1-yl)-1,3-thiazole-5-carboxylic acid hydroxyamide] | 92.1% | 99% |  |
| O=C(NO)c1cnc(N2CCN(S(=O)(=O)c3ccc(-c4ccsc4CN4CCCC4)cc3)CC2)s1 [Example 82] | 92.7% | 99% |  |
| CC(C)c1ccc(S(=O)(=O)N2CCN(c3ncc(C(=O)NO)s3)CC2)cc1 [Example 16, 2-[4-(4-isopropylphenylsulfonyl)-piperazin-1-yl]-thiazole-5-carboxylic acid hydroxyamide] | 90.9% | 100% |  |
| Cc1noc(C)c1S(=O)(=O)N1CCN(c2ncc(C(=O)NO)s2)CC1 [Example 27, 2-[4-(3,5-dimethylisoxazolesulfonyl)-pipiperazin-1-yl]-thiazole-5-carboxylic acid hydroxyamide] | 88.5% | 99% |  |

Reference: patent US20050197336A1 (Miikana Therapeutics Corporation, priority 2004, published 2005)
